Results on 14 compounds are retold here after patent US9533995B2, “Substituted N-heteroaryl spirolactam bipyrrolidines, preparation and therapeutic use thereof” (SANOFI, priority 2010, dated 2017).

Structures can show the parent of a compound that is named as a salt.

Chain of rhesus (Macacca Mulatta) H3 receptor (Q865E1 1-445): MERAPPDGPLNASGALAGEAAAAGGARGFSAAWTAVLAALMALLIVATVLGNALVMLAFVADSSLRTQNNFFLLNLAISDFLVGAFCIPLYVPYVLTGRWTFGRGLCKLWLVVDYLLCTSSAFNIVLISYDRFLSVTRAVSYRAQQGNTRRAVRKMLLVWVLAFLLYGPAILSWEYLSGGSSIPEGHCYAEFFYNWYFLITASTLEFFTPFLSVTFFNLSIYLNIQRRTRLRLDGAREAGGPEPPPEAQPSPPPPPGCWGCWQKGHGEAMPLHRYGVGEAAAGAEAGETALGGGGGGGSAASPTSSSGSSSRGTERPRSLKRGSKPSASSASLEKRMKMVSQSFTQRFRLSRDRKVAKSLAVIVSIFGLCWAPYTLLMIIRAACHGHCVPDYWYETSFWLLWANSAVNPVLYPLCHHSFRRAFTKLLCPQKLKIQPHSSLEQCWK

This assay concerns the target rhesus (Macacca Mulatta) H3 receptor (Macaca mulatta, UniProt Q865E1). Description: Rhesus H3 radioligand binding assay ([3H]-Methylhistamine displacement, WGA SPA beads). On the set-up: species or system rhesus monkey (Macacca Mulatta). The note with it: [3H]-Methylhistamine 2 nM, rhesus H3 membranes, 25° C., 1 hour; Cheng-Prusoff. How it is done:
Rhesus H3 membranes were prepared from the Flp-In T-REx 293 Cell Line (Invitrogen) stably transfected with pcDNA5/FRT/TO (Invitrogen) containing the rhesus monkey (Macacca Mulatta) 445 amino acid H3 receptor. (Genbank #AY231164). Stably transfected cultures were amplified in tissue culture flasks by standard tissue culture methods and induced to express rhesus H3 by exposure to 500 ng/ml tetracycline (Cellgro) for 24 hours. After induction, cells were dissociated from flasks utilizing Cell Stripper (Cellgro). Cells were centrifuged (1K×g, 5 min) and pellet frozen in an ethanol-dry ice bath to disrupt cell membranes. Frozen cell pellet was re-suspended in 5 mM HEPES (pH 7.4, Invitrogen) at 10 ml/1000 cm2 of harvested cells. The cell suspension was drawn through an 18 gauge needle (2-3×) followed by a 23 gauge needle (2-3×) to further disrupt cell membranes. The cell suspension was centrifuged (40K×g, 30 min). Cell membrane pellet was re-suspended in 5 mM HEPES (pH 7.4, Invitrogen) at a final protein concentration of 10 mg/ml. Rhesus H3 membranes were stored under liquid nitrogen prior to use in [3H]-Methylhistamine and GTPγS radioligand binding assays.
Rhesus H3 radioligand binding assay was performed using rhesus H3 receptor membranes (prepared as described above), [3H]-Methylhistamine (Perkin Elmer) and WGA SPA beads (wheat germ agglutinin scintillation proximity assay) beads (Amersham). The assay was performed in 96-well Opti-Plates (Packard). Each reaction contained 50 μl rhesus H3 membranes (20-30 μg total protein), 50 μl WGA SPA beads (0.1 μg) and 50 μl of 83 Ci/mmol [^3H]-Methylhistamine (final concentration 2 nM) and 50 μl of tested compound. The compounds of this invention and/or vehicle were diluted with binding buffer from 10 mM DMSO stocks. Assay plates were sealed with TopSeal (Perkin Elmer) and mixed on shaker (25° C., 1 hour). Assay plates were read on TopCount scintillation counter (Packard). Results were analyzed by Hill transformation and Ki values were determined by Cheng-Prusoff equation.
Take `Cc1nc(N2CC[C@@H](N3CCC[C@@H]3C)C2)ccc1N1CCC2(CCOCC2)C1=O` [Example 1, 2-[2-Methyl-6-((2S,3′R)-2-methyl-[1,3′]bipyrrolidinyl-1′-yl)-pyridin-3-yl]-8-oxa-2-aza-spiro[4.5]decan-1-one]: the Ki was found to be 37.6 nM.

In turn, `Cc1nc(N2CC[C@@H](N3CCC[C@@H]3C)C2)ccc1N1CCCC2(CCOCC2)C1=O` [Example 2, 2-[2-Methyl-6-((2S,3′R)-2-methyl-[1,3′]bipyrrolidinyl-1′-yl)-pyridin-3-yl]-9-oxa-2-aza-spiro[5.5]undecan-1-one] returned a Ki of 95.1 nM.

Regarding `Cc1nc(N2CC[C@@H](N3CCC[C@@H]3C)C2)ccc1N1CCC2(CCC(O)CC2)C1=O` (stereo partly drawn) [Example 5, 8-Hydroxy-2-[2-methyl-6-((2S,3′R)-2-methyl-[1,3′]bipyrrolidinyl-1′-yl)-pyridin-3-yl]-2-aza-spiro[4.5]decan-1-one], the Ki is 267 nM.

`Cc1nc(N2CC[C@@H](N3CCC[C@@H]3C)C2)ccc1N1CCC2(CCCCC2)C1=O` [Example 6, 2-[2-Methyl-6-((2S,3′R)-2-methyl-[1,3′]bipyrrolidinyl-1′-yl)-pyridin-3-yl]-2-aza-spiro[4.5]decan-1-one] gave a Ki of 56.5 nM.

In turn, `Cc1nc(N2CC[C@H](N3CCC[C@@H]3C)C2)ccc1N1CCC2(CCOCC2)C1=O` [Example 7, 2-[2-Methyl-6-((2S,3′S)-2-methyl-[1,3′]bipyrrolidinyl-1′-yl)-pyridin-3-yl]-8-oxa-2-aza-spiro[4.5]decan-1-one] had a Ki of 7.1 nM.

`Cc1nc(N2CC[C@@H](N3CCC[C@@H]3C)C2)ccc1N1CCC2(CCNCC2)C1=O` [Example 8, 2-[2-Methyl-6-((2S,3′R)-2-methyl-[1,3′]bipyrrolidinyl-1′-yl)-pyridin-3-yl]-2,8-diaza-spiro[4.5]decan-1-one hydrochloride]: the Ki was 17.5 nM.

Compound `Cc1nc(N2CC[C@@H](N3CCC[C@@H]3C)C2)ccc1N1CCCC2(CCNCC2)C1=O` [Example 9, 2-[2-Methyl-6-((2S,3′R)-2-methyl-[1,3′]bipyrrolidinyl-1′-yl)-pyridin-3-yl]-2,9-diaza-spiro[5.5]undecan-1-one hydrochloride] registered a Ki of 38.9 nM.

`C[C@H]1CCCN1[C@H]1CCN(c2cnc(N3CCC4(CCNCC4)C3=O)cn2)C1` [Example 10, 2-[5-((2S,3′S)-2-Methyl-[1,3′]bipyrrolidinyl-1′-yl)-pyrazin-2-yl]-2,8-diaza-spiro[4.5]decan-1-one] came in with a Ki of 26.3 nM.

On to `Cc1nc(N2CC[C@H](N3CCC[C@@H]3C)C2)ccc1N1CCC2(CCNCC2)C1=O` [Example 11, 2-[2-Methyl-6-((2S,3′S)-2-methyl-[1,3′]bipyrrolidinyl-1′-yl)-pyridin-3-yl]-2,8-diaza-spiro[4.5]decan-1-one], for which the affinity, expressed as Ki, was 7.57 nM.

As for `C[C@H]1CCCN1[C@H]1CCN(c2ncc(N3CCC4(CCN(C(=O)OC(C)(C)C)CC4)C3=O)cn2)C1` [Example 12, 2-[2-((2S,3′S)-2-Methyl-[1,3′]bipyrrolidinyl-1′-yl)-pyrimidin-5-yl]-1-oxo-2,8-diaza-spiro[4.5]decane-8-carboxylic acid tert-butyl ester], the Ki was found to be 48.5 nM.

`C[C@H]1CCCN1[C@H]1CCN(c2ccc(N3CCC4(CCOCC4)C3=O)nc2)C1` [Example 13, 2-[5-((2S,3′S)-2-Methyl-[1,3′]bipyrrolidinyl-1′-yl)-pyridin-2-yl]-8-oxa-2-aza-spiro[4.5]decan-1-one]: the affinity, expressed as Ki, was 22.3 nM.

For the compound `C[C@H]1CCCN1[C@H]1CCN(c2cnc(N3CCC4(CCN(C(=O)OC(C)(C)C)CC4)C3=O)cn2)C1` [Example 14, 2-[5-((2S,3′S)-2-Methyl-[1,3′]bipyrrolidinyl-1′-yl)-pyrazin-2-yl]-1-oxo-2,8-diaza-spiro[4.5]decane-8-carboxylic acid tert-butyl ester], affinity was put at a Ki of 105 nM.

`Cc1nc(N2CC[C@H](N3CCC[C@@H]3C)C2)ccc1N1CCC2(CCN(C(=O)OC(C)(C)C)CC2)C1=O` [Example 15, 2-[2-Methyl-6-((2S,3′S)-2-methyl-[1,3′]bipyrrolidinyl-1′-yl)-pyridin-3-yl]-1-oxo-2,8-diaza-spiro[4.5]decane-8-carboxylic acid tert-butyl ester] had a Ki of 95.5 nM.

The compound `C[C@H]1CCCN1[C@H]1CCN(c2ncc(N3CCC4(CCOCC4)C3=O)cn2)C1` [Example 16, 2-[2-((2S,3′S)-2-Methyl-[1,3′]bipyrrolidinyl-1′-yl)-pyrimidin-5-yl]-8-oxa-2-aza-spiro[4.5]decan-1-one] yielded a Ki of 4.21 nM.

As usually defined, the Ki is the dissociation constant of the complex between target and ligand, obtained from inhibition or displacement.
